In ChEMBL document CHEMBL1150482, “Synthesis of the 4,5 diphosphonate analog of D,L-myo-inositol 4,5-diphosphate” (Bioorg Med Chem Lett, 1993):

Assay: Compound was tested for calcium mobilization using rat basophilic leukemia cells at concentration of 5 mM
Format: functional, cell-based
Conditions: RBL-1

EC50: 70 µM
Compound: O=P(O)(O)C[C@@H]1[C@@H](O)[C@H](O)[C@H](O)[C@H](O)[C@H]1CP(=O)(O)O
